Measurements published in paper PMC7481290, “Halogenation as a tool to tune antimicrobial activity of peptoids” (Scientific Reports, 2020).
Converted amounts (≈) assume the structure as drawn. Non-standard residues stand in square brackets, D forms with d. Residues, ends and D or L forms follow the SMILES beside them. Gly(Nα-4-Cl-benzyl) = O=C(O)CNCc1ccc(Cl)cc1; N(4-F-Bzl)Gly = O=C(O)CNCc1ccc(F)cc1; NBzl(4-I)Gly = O=C(O)CNCc1ccc(I)cc1; Nphe = O=C(O)CNCc1ccccc1; Nlys = NCCCCNCC(=O)O

Tests used:
S. aureus ATCC 25923 = assay type: cell-based, Staphylococcus aureus; settings: ATCC 25923, 18 h
Procedure: (§1) Bacterial growth inhibition was determined by using broth microdilution according to the Clinical Laboratory Standards Institute[43]. The antibacterial activity of peptoids was tested against S. aureus ATCC 25923, ATCC29213, and methicillin resistant S. aureus USA 300, methicillin resistant S. epidermidis ATCC 51625, a biofilm producing methicillin resistant S. epidermidis ET-024[44], P. aeruginosa Pa01 (H103), and E. coli ATCC 25922. Bacteria, grown on agar plates for 18 h at 37 °C, were diluted to ∼1 × 10^8 CFU/mL in Mueller‐Hinton Broth II (MHB II). Twofold serial dilutions of peptoids in MHB II were inoculated with bacteria to achieve a final concentration of 5 × 10^5 CFU/mL in polypropylene 96 U‐well microtiter plates (Corning 3,897; ThermoFisher Scientific, Roskilde), followed by incubation at 37 °C in ambient air for 18 h. The MIC values were determined as the lowest concentration showing no visible bacterial growth. Experiments were performed twice (in technical triplicates) on 2 different days.

[1] = tested on: Methicillin-resistant S. aureus USA 300; assay type: cell-based, Staphylococcus aureus; settings: USA 300, 18 h
Procedure: as §1

S. aureus ATCC 29213 = assay type: cell-based, Staphylococcus aureus; settings: ATCC 29213, 18 h
Procedure: as §1

[2] = tested on: P. aeruginosa PA01 (H103); assay type: cell-based, Pseudomonas aeruginosa; settings: H103, 18 h
Procedure: as §1

[3] = tested on: Methicillin-resistant S. epidermidis ATCC 51625; assay type: cell-based, Staphylococcus epidermidis; settings: ATCC 51625, 18 h
Procedure: as §1

[4] = tested on: Methicillin-resistant S. epidermidis ET-024; assay type: cell-based, Staphylococcus epidermidis; settings: Methicillin-resistant ET-024, 18 h
Procedure: as §1

E. coli ATCC 25922 = assay type: cell-based, Escherichia coli; settings: ATCC 25922, 18 h
Procedure: as §1

[5] = Critical aggregation concentration from SAXS fit analysis; assay type: physicochemical
Procedure: SAXS experiments of the 10-mer peptoids were performed at the automated BM29 bioSAXS beamline at the European Synchrotron Radiation Facility (ESRF) in Grenoble, France[45]. The data was obtained using an energy of 12.5 keV and a detector distance of 2.87 m, covering a q range ( q=4πsin(θ/2)/λ ), where θ is the scattering angle and λ is the X-ray wavelength) of about 0.0047 to 0.5 Å^−1. The data set was calibrated to an absolute intensity scale using water as a primary standard. 40 µL samples were run through a capillary using the flow mode of the automated sample changer. SAXS data was collected in ten successive frames of 0.5 s each to monitor radiation damage and the data reduction was done using the standard tool at BM29[47].
The SAXS experiments on the fully iodinated 6-, 8-, and 12-mers to determine the CAC of the compounds were performed using a Bruker NANOSTAR equipped with a microfocus X-ray source (IμS Cu, Incoatec, Germany) and a VÅNTEC-2000 detector. Raw scattering data was calibrated to absolute intensity scale using water as a primary standard and radially averaged in order to obtain the 1D scattered intensity profile as a function of the scattering vector, with a wavelength of 1.54 Å.
The modelling fit analysis of the scattering data is explained in detail in the supplementary information.

SMILES | critical aggregation concentration (CAC) [5] [mg/mL] | Minimal inhibitory concentration SA^a (S. aureus ATCC 25923) [µg/mL] | Minimal inhibitory concentration MRSA^c [1] [µg/mL] | Minimal inhibitory concentration SA^b (S. aureus ATCC 29213) [µg/mL] | Minimal inhibitory concentration PA^g [2] [µg/mL] | Minimal inhibitory concentration MRSE^e [3] [µg/mL] | Minimal inhibitory concentration MRSE^d [4] [µg/mL] | Minimal inhibitory concentration EC^f (E. coli ATCC 25922) [µg/mL]
NCCCCNCC(=O)N(CC(=O)N(CCCCN)CC(=O)N(CC(=O)N(CCCCN)CC(=O)N(CC(=O)N(CCCCN)CC(=O)N(CC(=O)N(CCCCN)CC(=O)N(CC(=O)N(CCCCN)CC(=O)N(CC(N)=O)Cc1ccc(F)cc1)Cc1ccc(F)cc1)Cc1ccc(F)cc1)Cc1ccc(F)cc1)Cc1ccc(F)cc1)Cc1ccc(F)cc1 [Compound 29] (H-[Nlys][N(4-F-Bzl)Gly][Nlys][N(4-F-Bzl)Gly][Nlys][N(4-F-Bzl)Gly][Nlys][N(4-F-Bzl)Gly][Nlys][N(4-F-Bzl)Gly][Nlys][N(4-F-Bzl)Gly]-NH2) |  | 32 (≈ 18 µM) | 16 (≈ 9 µM) | 32 (≈ 18 µM) | 64 (≈ 36 µM) | 4 (≈ 2.25 µM) | 4 to 8 | 256 (≈ 144 µM)
NCCCCNCC(=O)N(CC(=O)N(CCCCN)CC(=O)N(CC(=O)N(CCCCN)CC(=O)N(CC(=O)N(CCCCN)CC(=O)N(CC(=O)N(CCCCN)CC(=O)N(CC(N)=O)Cc1ccc(I)cc1)Cc1ccccc1)Cc1ccc(I)cc1)Cc1ccccc1)Cc1ccc(I)cc1 [Compound 27] (H-[Nlys][NBzl(4-I)Gly][Nlys][Nphe][Nlys][NBzl(4-I)Gly][Nlys][Nphe][Nlys][NBzl(4-I)Gly]-NH2) | > 5 | 4 (≈ 2.26 µM) | 4 (≈ 2.26 µM) | 4 (≈ 2.26 µM) | > 512 | 1 (≈ 0.565 µM) | 2 (≈ 1.13 µM) | 128 (≈ 72.3 µM)
NCCCCNCC(=O)N(CC(=O)N(CCCCN)CC(=O)N(CC(=O)N(CCCCN)CC(=O)N(CC(=O)N(CCCCN)CC(=O)N(CC(N)=O)Cc1ccc(I)cc1)Cc1ccccc1)Cc1ccc(I)cc1)Cc1ccccc1 [Compound 18] (H-[Nlys][Nphe][Nlys][NBzl(4-I)Gly][Nlys][Nphe][Nlys][NBzl(4-I)Gly]-NH2) |  | 32 (≈ 23.4 µM) | 16 (≈ 11.7 µM) | 32 (≈ 23.4 µM) | > 512 | 4 (≈ 2.92 µM) | 8 (≈ 5.84 µM) | 256 (≈ 187 µM)

Further lines, with some results ahead:

critical aggregation concentration (CAC) [5] [mg/mL] | SMILES | Minimal inhibitory concentration SA^a (S. aureus ATCC 25923) [µg/mL] | Minimal inhibitory concentration MRSA^c [1] [µg/mL] | Minimal inhibitory concentration SA^b (S. aureus ATCC 29213) [µg/mL] | Minimal inhibitory concentration PA^g [2] [µg/mL] | Minimal inhibitory concentration MRSE^e [3] [µg/mL] | Minimal inhibitory concentration MRSE^d [4] [µg/mL] | Minimal inhibitory concentration EC^f (E. coli ATCC 25922) [µg/mL]
> 5 | NCCCCNCC(=O)N(CC(=O)N(CCCCN)CC(=O)N(CC(=O)N(CCCCN)CC(=O)N(CC(=O)N(CCCCN)CC(=O)N(CC(=O)N(CCCCN)CC(=O)N(CC(N)=O)Cc1ccc(F)cc1)Cc1ccccc1)Cc1ccc(F)cc1)Cc1ccccc1)Cc1ccc(F)cc1 [Compound 24] (H-[Nlys][N(4-F-Bzl)Gly][Nlys][Nphe][Nlys][N(4-F-Bzl)Gly][Nlys][Nphe][Nlys][N(4-F-Bzl)Gly]-NH2) | 512 (≈ 354 µM) | 256 (≈ 177 µM) | 512 (≈ 354 µM) | 512 (≈ 354 µM) | 8 (≈ 5.53 µM) | 4 (≈ 2.76 µM) | 256 (≈ 177 µM)
> 5 | NCCCCNCC(=O)N(CC(=O)N(CCCCN)CC(=O)N(CC(=O)N(CCCCN)CC(=O)N(CC(=O)N(CCCCN)CC(=O)N(CC(=O)N(CCCCN)CC(=O)N(CC(N)=O)Cc1ccc(Cl)cc1)Cc1ccccc1)Cc1ccc(Cl)cc1)Cc1ccccc1)Cc1ccc(Cl)cc1 [Compound 25] (H-[Nlys][Gly(Nα-4-Cl-benzyl)][Nlys][Nphe][Nlys][Gly(Nα-4-Cl-benzyl)][Nlys][Nphe][Nlys][Gly(Nα-4-Cl-benzyl)]-NH2) | 8 (≈ 5.34 µM) | 16 (≈ 10.7 µM) | 8 (≈ 5.34 µM) | 512 (≈ 342 µM) | 1 (≈ 0.668 µM) | 2 (≈ 1.34 µM) | 256 (≈ 171 µM)
